{"source": "patent US20200305481A1", "about": "“STEVIOL GLYCOSIDE COMPOSITIONS FOR ORAL INGESTION OR USE” (CARGILL, INCORPORATED, priority 2015, published 2020)", "key": {"[1]": {"experiment": "Sensory testing of steviol glycoside samples dissolved in water", "format": "in vivo", "details": "for Sensory Comments: about 300 ppm sample in reverse osmosis water, 2-3 mL tasted by two to three experienced tasters; for sweetness in water compared with Reb M in water: in reverse osmosis water, experienced tasters", "description": "Steviol glycoside samples (SG201, SG203, and SG204) were isolated and purified from fermentation broth, purified Reb A and B are of leaf origin, and Reb M is chemically synthesized. All samples were dissolved in reverse osmosis water at the concentrations indicated. Approximately 2-3 milliliters of each solution was tasted and sensory evaluations conducted by two to three experienced tasters."}, "[2]": {"details": "cited from earlier work; for taste properties in words: background statements, literature sensory evaluation"}, "[3]": {"details": "water at room temperature / beverage formulations; cited from earlier work"}}, "note": "Entries after “also recorded” stand apart in the source; their conditions may differ.", "data": [{"smiles": "C=C1C[C@@]23CC[C@H]4[C@@](C)(CCC[C@@]4(C)C(=O)O[C@@H]4O[C@H](CO)[C@@H](O)[C@H](O)[C@H]4O)[C@@H]2CC[C@]1(O[C@@H]1O[C@H](CO)[C@@H](O)[C@H](O[C@@H]2O[C@H](CO)[C@@H](O)[C@H](O)[C@H]2O)[C@H]1O[C@@H]1O[C@H](CO)[C@@H](O)[C@H](O)[C@H]1O)C3", "note": "[Reb A, rebaudioside A]", "values": [{"measurement": "Sensory Comments", "setting": "[1]", "result": "some sweet, bitter"}, {"measurement": "taste properties in words", "setting": "[2]", "result": "off-taste issues"}]}, {"smiles": "C=C1C[C@@]23CC[C@H]4[C@@](C)(CCC[C@@]4(C)C(=O)O[C@@H]4O[C@H](CO)[C@@H](O)[C@H](O)[C@H]4O[C@@H]4O[C@H](CO)[C@@H](O)[C@H](O)[C@H]4O)[C@@H]2CC[C@]1(O[C@@H]1O[C@H](CO)[C@@H](O)[C@H](O[C@@H]2O[C@H](CO)[C@@H](O)[C@H](O)[C@H]2O)[C@H]1O[C@@H]1O[C@H](CO)[C@@H](O)[C@H](O)[C@H]1O)C3", "note": "[Reb D, rebaudioside D]", "values": [{"measurement": "Sensory Comments", "setting": "[1]", "result": "less bitter; also recorded: better sweetness,"}, {"measurement": "aqueous solubility in words", "setting": "[3]", "result": "low solubility in water at room temperature"}, {"measurement": "taste properties in words", "setting": "[2]", "result": "slow onset of sweetness and was very clean"}, {"measurement": "times sweeter than sucrose", "setting": "[2]; relative to sucrose (sugar)", "result": "200-220 times"}]}, {"smiles": "C=C1C[C@@]23CC[C@H]4[C@@](C)(CCC[C@@]4(C)C(=O)O[C@@H]4O[C@H](CO)[C@@H](O)[C@H](O[C@@H]5O[C@H](CO)[C@@H](O)[C@H](O)[C@H]5O)[C@H]4O[C@@H]4O[C@H](CO)[C@@H](O)[C@H](O)[C@H]4O)[C@@H]2CC[C@]1(O[C@@H]1O[C@H](CO)[C@@H](O)[C@H](O[C@@H]2O[C@H](CO)[C@@H](O)[C@H](O)[C@H]2O)[C@H]1O[C@@H]1O[C@H](CO)[C@@H](O)[C@H](O)[C@H]1O)C3", "note": "[Reb M, rebaudioside M]", "values": [{"measurement": "Sensory Comments", "setting": "[1]", "result": "good sweetness, almost; also recorded: sucrose-like sensation; also recorded: in mouth"}, {"measurement": "aqueous solubility in words", "setting": "[3]", "result": "poor aqueous solubility and dissolution qualities"}, {"measurement": "taste properties in words", "setting": "[2]", "result": "higher sweetness intensity and is more potent than other steviol glycosides"}]}, {"smiles": "C=C1C[C@@]23CCC4[C@](C)(C(=O)OC5OC(CO)C(O)C(OC6OC(CO)C(O)C(O)C6O)C5OC5OC(CO)C(O)C(O)C5O)CCC[C@@]4(C)[C@@H]2CCC1(OC1OC(CO)C(O)C(O)C1O)C3", "note": "(stereo partly drawn) [SG201]", "values": [{"measurement": "Sensory Comments", "setting": "[1]", "result": "not sweet, meaty, brothy,; also recorded: strecker, methional"}, {"measurement": "sweetness in water compared with Reb M in water", "setting": "[1]", "result": "do not exhibit sweetness similar to Reb M"}]}, {"smiles": "C=C1C[C@@]23CCC4[C@](C)(C(=O)OC5OC(CO)C(O)C(O)C5OC5OC(CO)C(O)C(O)C5O)CCC[C@@]4(C)[C@@H]2CCC1(OC1OC(COC2OC(CO)C(O)C(O)C2O)C(O)C(O)C1OC1OC(CO)C(O)C(O)C1O)C3", "note": "(stereo partly drawn) [SG203]", "values": [{"measurement": "Sensory Comments", "setting": "[1]", "result": "not sweet, meaty, brothy,; also recorded: strecker, methional"}, {"measurement": "sweetness in water compared with Reb M in water", "setting": "[1]", "result": "do not exhibit sweetness similar to Reb M"}]}, {"smiles": "C=C1C[C@@]23CCC4[C@](C)(C(=O)OC5OC(CO)C(O)C(O)C5OC5OC(CO)C(O)C(O)C5NC(C)=O)CCC[C@@]4(C)[C@@H]2CCC1(OC1OC(CO)C(O)C(OC2OC(CO)C(O)C(O)C2O)C1OC1OC(CO)C(O)C(O)C1O)C3", "note": "(stereo partly drawn) [SG204]", "values": [{"measurement": "Sensory Comments", "setting": "[1]", "result": "bitter, not very sweet"}, {"measurement": "sweetness in water compared with Reb M in water", "setting": "[1]", "result": "do not exhibit sweetness similar to Reb M"}]}]}
